Test results published in ChEMBL document CHEMBL4715850, “Exploiting binding-site arginines in drug design: Recent examples” (Bioorg Med Chem Lett, 2020).

Biological target: S-adenosylmethionine synthase isoform type-2 (Homo sapiens, UniProt P31153)
Test: Allosteric inhibition of MAT2A (unknown origin) expressed in Escherichia coli BL21(DE3) assessed as reduction in S-adenosyl-methionine formation using methionine as substrate in presence of ATP by ELISA

Chain of S-adenosylmethionine synthase isoform type-2 (P31153 whole entry, canonical isoform): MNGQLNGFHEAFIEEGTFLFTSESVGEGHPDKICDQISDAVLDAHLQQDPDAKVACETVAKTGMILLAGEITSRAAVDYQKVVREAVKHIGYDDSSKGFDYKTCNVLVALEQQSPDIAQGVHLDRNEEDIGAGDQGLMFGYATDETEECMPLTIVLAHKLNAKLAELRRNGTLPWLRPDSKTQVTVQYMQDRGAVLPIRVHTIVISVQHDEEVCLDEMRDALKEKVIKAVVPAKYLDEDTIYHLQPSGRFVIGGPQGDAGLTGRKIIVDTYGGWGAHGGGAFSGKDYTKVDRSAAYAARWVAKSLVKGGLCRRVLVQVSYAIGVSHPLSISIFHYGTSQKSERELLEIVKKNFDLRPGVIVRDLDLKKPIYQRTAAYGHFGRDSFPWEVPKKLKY

Compound: COc1ccc2c(=O)c(C)c(-c3ccnc(-c4ccc(OC(F)(F)F)cc4)c3)[nH]c2c1
- IC50: 283 nM
